Data published in paper PMC11040665, “Aminothiazolone Inhibitors Disrupt the Protein–RNA Interaction of METTL16 and Modulate the m^6A RNA Modification” (JACS Au, 2024).
“Also recorded” adds a separate entry of the source.

Assays:
[1] = target: T1, METTL16–MAT2A-hp1 mRNA interaction (METTL16 MTD 1–291, FAM-labeled MAT2A-hp1 RNA) (Homo sapiens, UniProt Q86W50); assay: Fluorescence polarization (FP) assay, disruption of METTL16 binding to FAM-MAT2A-hp1 RNA; conditions: for IC50 class in the FP assay (MAT2A-hp1): 50 nM METTL16 MTD, 5 nM FAM-MAT2A-hp1, given as 'inactive'
T1 sequence (Q86W50 1-291): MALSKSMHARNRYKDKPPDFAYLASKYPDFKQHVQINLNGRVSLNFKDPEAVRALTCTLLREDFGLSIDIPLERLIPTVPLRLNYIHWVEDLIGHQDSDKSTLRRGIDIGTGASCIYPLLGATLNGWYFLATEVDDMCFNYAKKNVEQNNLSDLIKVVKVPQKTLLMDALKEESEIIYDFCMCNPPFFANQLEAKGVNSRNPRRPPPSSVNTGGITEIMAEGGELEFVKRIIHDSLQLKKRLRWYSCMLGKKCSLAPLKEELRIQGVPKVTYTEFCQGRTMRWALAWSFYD
Protocol: The binding of METTL16 to the FAM-labeled RNA probe formed a complex that led to a higher FP signal in comparison to that of the unbound RNA probe (Figure 2A). […] The Z-factor of 0.91 indicated the suitability of the assay condition (Figure S2D). […] In both FP assay and EMSA, a final concentration of 50 nM METTL16 and 5 nM FAM-MAT2A-hp was used. The METTL16 MTD (amino acids 1–291) was used in this study unless specifically indicated otherwise.
The FP assay was performed using 384-well black plates (Corning #4514) in a total reaction volume of 20 μL, with the final concentration of protein and RNA being 50 and 5 nM respectively. Compounds were diluted in FP buffer and incubated with protein for 30 min at room temperature, then FAM-MAT2A-hp1 RNA probe was added and the fluorescence polarization was measured using a TECAN Spark plate reader, under the excitation wavelength of 485 nm and the emission wavelength of 535 nm with bandwidth of 20 nm. 1% DMSO was used as the control. The inhibition was calculated with the equation: inhibition = 100%(Control – X)/(Control – Blank); Control: DMSO with protein and FAM-RNA; Blank: DMSO with FAM-RNA; X: compound with protein and FAM-RNA. The IC50 value was further determined using GraphPad Prism 9. […] The polarization was measured under an excitation wavelength of 630 nm and an emission wavelength of 680 nm with a bandwidth of 20 nm.

[2] = target: T2, METTL16 MTD–GGACU-containing RNA interaction (Homo sapiens, UniProt Q86W50); assay: EMSA with GGACU-containing RNA; conditions: 5 nM RNA, 600 nM METTL16 MTD
T2 sequence (Q86W50 1-291): T1 sequence (Q86W50 1-291)
Protocol: METTL16 MTD protein (1–291) was incubated with the indicated compound or DMSO in a buffer containing 20 mM HEPES, pH 7.5, 50 mM NaCl, 0.05% v/v Tween 20, and 0.05 mg/mL BGG at room temperature for 30 min; subsequently, FAM-MAT2A-hp1 RNA probe was added and incubated at room temperature for 10 min, the final of protein and RNA are 50 and 5 nM respectively, and 1% DMSO was used as the control. […] The gel was detected and imaged by Chemi Doc MP (Bio-Rad). […] EMSA for testing compounds with GGAUC-motif containing RNA and METTL16 MTD interaction was performed using the method described above, expecting that the final of METTL16 MTD protein and FAM-labeled-GGACU RNA are 600 nM and 5 nM respectively. EMSA for RNA binding: indicated concentrations of fluorophore-labeled RNA were incubated with indicated concentrations of protein in EMSA buffer for 15 min at room temperature, then loaded to native PAGE gels and imaged with the method described above.

[3] = target: T3, methyltransferase activity of METTL16 MTD toward MAT2A-hp1 (Homo sapiens, UniProt Q86W50); assay: In vitro methylation assay (MTase Glo); format: biochemical; conditions: RNA substrate MAT2A-hp1
T3 construct: METTL16 MTD (1–291) was subcloned to pOPINB plasmid; His tag followed by HRV 3C cleavage site (N, cleaved yes); made in house; host or cells: E. coli Rosetta (DE3)
T3 sequence (Q86W50 1-291): T1 sequence (Q86W50 1-291)
Protocol: Next, we evaluated the inhibition of the METTL16 methylation using the MTase Glo assay kit (Promega) measuring the methyltransferase activity based on the formation of the methylation product S-adenosyl homocysteine, which was converted to ADP by the MTase-Glo reagent to trigger a subsequent luciferase reaction (Figure 5E).
The methyltransferase activity of METTL16 MTD was measured using an MTase Glo kit (Promega V7601) following the manufacturer’s instructions. The reaction was carried out in white 384-well plates (Corning #3824), with a total methyltransferase reaction volume of 8 μL, and the final concentrations of METTL16 MTD, MAT2A-hp1, and SAM were 1, 1, and 10 μM, respectively, and 1% of DMSO was used as a control. […] To use SAM at a different final concentration, the concentration of SAM was adjusted accordingly in a 2× substrate solution.

[4] = target: T4, METTL16 (1-291)–FAM-MAT2A-hp1 RNA (Homo sapiens, UniProt Q86W50); assay: FP assay after incubating SAM with METTL16; format: binding; conditions: SAM incubated with METTL16 before the FP assay
T4 construct: METTL16 MTD (1–291) was subcloned to pOPINB plasmid; His tag followed by HRV 3C cleavage site (N, cleaved yes); made in house; host or cells: E. coli Rosetta (DE3)
T4 sequence (Q86W50 1-291): T1 sequence (Q86W50 1-291)

[5] = target: T5, METTL16 MTD–U6 snRNA Δ interaction (Homo sapiens, UniProt Q86W50); assay: FP assay with Cy5-labeled U6 snRNA Δ; format: binding
T5 construct: METTL16 MTD (1–291) was subcloned to pOPINB plasmid; His tag followed by HRV 3C cleavage site (N, cleaved yes); made in house; host or cells: E. coli Rosetta (DE3)
T5 sequence (Q86W50 1-291): T1 sequence (Q86W50 1-291)

[6] = test system: MDA-MB-231 cells; assay: Colony formation assay; format: cell-based, human; conditions: 7 days, three tested concentrations
Protocol: MDA-MB-231 cells were collected and seeded with the density of 1000 cells per well into 24-well plates; after being cultured overnight, the medium was exchanged and treated with indicated compounds or DMSO (0.5%) as the control. The medium change and treatment were performed every 3 days. After 7 days, the cell culture medium was discarded, and cells were washed with PBS and fixed with 4% paraformaldehyde solution at room temperature for 15 min; the paraformaldehyde solution was removed, and cells were washed with PBS again to remove the paraformaldehyde. Then cells were stained with 0.1% (w/v) crystal violet. After staining for 15 min, the cells were washed with H2O to remove the extra dye and then photographed.

[7] = target: T6, METTL16 (1-291) (Homo sapiens, UniProt Q86W50); assay: Covalent binding evaluation by protein LC–MS; conditions: 30 μM METTL16 (1-291), 100 μM compound, 30 or 150 min
T6 construct: METTL16 MTD (1–291) was subcloned to pOPINB plasmid; His tag followed by HRV 3C cleavage site (N, cleaved yes); made in house; host or cells: E. coli Rosetta (DE3)
T6 sequence (Q86W50 1-291): T1 sequence (Q86W50 1-291)
Protocol: To evaluate whether the aminothiazolones covalently bind to METTL16, we performed the LC–MS analysis after incubating the protein with aminothiazolones for 30 and 150 min, respectively. In the case of covalent binding, we would expect to observe the formation of covalent adducts, which would accrue over time. […] Besides the LC–MS analysis result, an irreversible inhibition counter screening indicated the reversible inhibitory activity of the aminothiazolones (Figure S8A).
Figure S7. Covalent evaluation of METTL16 inhibitors via LC-MS. (A) Deconvoluted mass spectrum of 30 µM METTL16 (1-291) incubated with 1% DMSO for 30 min (left) and 150 min (right). (B), (C), (D) Deconvoluted […]
(right). Expected Mass for METTL16 (1-291), 33455.7 Da. The observed small mass shift of ~50 Da appeared in both the DMSO control and compound-treated samples was probably formed by the solvent used in the LC-MS.
(1 picture or pasted object on this page, not shown here)
For computational docking analysis of aminothiazolones to the RNA binding site of METTL16 (PDB code: 6B91)2 Schrödinger® Maestro 12.3 was used. […]
Chemical states were generated with the ligand preparation module and METTL16 conformation with the protein preparation module. […] The glide dock module was used and the results were evaluated according to interactions between small molecules and METTL16, small molecule orientations, docking scores and solvent exposure patterns. […]
METTL16 MTD protein was diluted in SEC buffer (20mM pH 7.5, 200 mM NaCl, 0.5 mM TCEP,5% v/v glycerol) to a final concentration of 30 µM, and incubated with DMSO or 100 μM compound (final 1% DMSO) at room temperature. After incubation (30 min or 150 min), the samples were analyzed on an Agilent 1260 II Infinity system equipped with an electrospray ion source in positive mode, run through a Desalting cartridge (AdvanceBio Desalting-RP, 2.1 mm, 12.5mm, Agilent) with a gradient of 5-80% HPLC-grade acetonitrile (+ 0.1% TFA) in HPLC-grade water (+ 0.1% TFA) (flowrate: 0.4 mL/min, runtime: 6 min). […]

COc1ccc(S(=O)(=O)NC2=NC(=O)C(=C3C(=O)Nc4ccc(C)cc43)S2)cc1 [Compound 2]
IC50 [1]: 24.3 ± 5.3 µM

COc1ccc(S(=O)(=O)NC2=NC(=O)C(=C3C(=O)Nc4ccc(OC)cc43)S2)cc1 [Compound 3]
IC50 [1]: 23.8 ± 5.5 µM

COc1ccc(S(=O)(=O)NC2=NC(=O)C(=C3C(=O)Nc4ccc([N+](=O)[O-])cc43)S2)cc1 [Compound 4]
IC50 [1]: 8.2 ± 0.76 µM

COc1ccc(S(=O)(=O)NC2=NC(=O)C(=C3C(=O)Nc4ccc(Br)cc43)S2)cc1 [Compound 8]
IC50 [1]: 12.4 ± 2.8 µM

COc1ccc(S(=O)(=O)NC2=NC(=O)C(=C3C(=O)N(c4ccccc4)c4ccccc43)S2)cc1 [Compound 10]
IC50 class in the FP assay (MAT2A-hp1) [1]: inactive

COc1ccc(S(=O)(=O)NC2=NC(=O)C(=C3C(=O)Nc4c(F)cccc43)S2)cc1 [Compound 11]
IC50 [1]: 28.9 ± 5.8 µM

COc1ccc(S(=O)(=O)NC2=NC(=O)C(=C3C(=O)Nc4cc(F)ccc43)S2)cc1 [Compound 12]
IC50 class in the FP assay (MAT2A-hp1) [1]: inactive

COc1ccc(S(=O)(=O)NC2=NC(=O)C(=C3C(=O)Nc4ccc(F)cc43)S2)cc1 [Compound 13]
IC50 [1]: 26.9 ± 3.5 µM

COc1ccc(S(=O)(=O)NC2=NC(=O)C(=C3C(=O)Nc4c(Cl)cccc43)S2)cc1 [Compound 14]
IC50 [1]: 57.6 ± 1.3 µM

COc1ccc(S(=O)(=O)NC2=NC(=O)C(=C3C(=O)Nc4cc(Cl)ccc43)S2)cc1 [Compound 15]
IC50 [1]: 26.4 ± 5 µM

COc1ccc(S(=O)(=O)NC2=NC(=O)C(=C3C(=O)N(C)c4ccc(F)cc43)S2)cc1 [Compound 16]
IC50 [1]: 15 ± 1 µM

COc1ccc(S(=O)(=O)NC2=NC(=O)C(=C3C(=O)N(C)c4cc(F)ccc43)S2)cc1 [Compound 17]
IC50 [1]: 22.8 ± 2.3 µM

COc1ccc(S(=O)(=O)NC2=NC(=O)C(=Cc3cc4ccccc4[nH]3)S2)cc1 [Compound 18]
IC50 [1]: 23.2 ± 2.7 µM

Cc1ccc(S(=O)(=O)NC2=NC(=O)C(=C3C(=O)Nc4ccc(Cl)cc43)S2)cc1 [Compound 19]
IC50 [1]: 13.5 ± 1.7 µM

O=C1N=C(NS(=O)(=O)c2ccccc2)SC1=C1C(=O)Nc2ccc(Cl)cc21 [Compound 20]
IC50 [1]: 15.7 ± 1.6 µM

O=C1N=C(NS(=O)(=O)c2cccc([N+](=O)[O-])c2)SC1=C1C(=O)Nc2ccc(Cl)cc21 [Compound 22]
IC50 [1]: 12 ± 2 µM

CC(C)(C)c1ccc(S(=O)(=O)NC2=NC(=O)C(=C3C(=O)Nc4ccc(Cl)cc43)S2)cc1 [Compound 23]
IC50 class in the FP assay (MAT2A-hp1) [1]: inactive

O=C1N=C(NS(=O)(=O)c2ccc(F)cc2Cl)SC1=C1C(=O)Nc2ccc(Cl)cc21 [Compound 24]
IC50 [1]: 14 ± 1.5 µM

O=C1N=C(NS(=O)(=O)c2ccc(C3CCCCC3)cc2)SC1=C1C(=O)Nc2ccc(Cl)cc21 [Compound 25]
IC50 class in the FP assay (MAT2A-hp1) [1]: inactive

O=C1N=C(NS(=O)(=O)c2ccc(-c3ccccc3)cc2)SC1=C1C(=O)Nc2ccc(Cl)cc21 [Compound 26]
IC50 class in the FP assay (MAT2A-hp1) [1]: inactive

CS(=O)(=O)NC1=NC(=O)C(=C2C(=O)Nc3ccc(Cl)cc32)S1 [Compound 29]
IC50 [1]: 36.2 ± 2.8 µM

O=C1N=C(NS(=O)(=O)c2ccc(C(F)(F)F)cc2)SC1=C1C(=O)Nc2ccc(Cl)cc21 [Compound 30]
IC50 [1]: 13.6 ± 3.6 µM

O=C1N=C(NS(=O)(=O)c2ccc3ccccc3c2)SC1=C1C(=O)Nc2ccc(Cl)cc21 [Compound 31]
IC50 [1]: 9.9 ± 1.3 µM

O=C1N=C(NS(=O)(=O)c2ccc(F)cc2)SC1=C1C(=O)Nc2ccc(Cl)cc21 [Compound 33]
IC50 [1]: 30.4 ± 10.5 µM

Cc1ccc(C(=O)NC2=NC(=O)C(=C3C(=O)Nc4ccc(Cl)cc43)S2)cc1 [Compound 34]
IC50 class in the FP assay (MAT2A-hp1) [1]: inactive

COc1ccc(C(=O)NC2=NC(=O)C(=C3C(=O)Nc4ccc(Cl)cc43)S2)cc1 [Compound 35]
IC50 class in the FP assay (MAT2A-hp1) [1]: inactive

COc1ccc(C(=O)NC2=NC(=O)C(=C3C(=O)Nc4ccc(Cl)cc43)S2)cc1OC [Compound 36]
IC50 class in the FP assay (MAT2A-hp1) [1]: inactive

O=C1N=C(NC(=O)c2ccc(F)cc2)SC1=C1C(=O)Nc2ccc(Cl)cc21 [Compound 37]
IC50 class in the FP assay (MAT2A-hp1) [1]: inactive

COc1ccc(S(=O)(=O)NC2=NC(=O)C(=C3C(=O)Nc4ccc(Cl)cc43)O2)cc1 [Compound 38]
IC50 class in the FP assay (MAT2A-hp1) [1]: inactive | inhibitory activity against METTL16 in the FP assay, in words ([1]; FAM-MAT2A-hp1 RNA): did not show inhibitory activity

CN1C(=O)C(=C2SC(NS(=O)(=O)c3ccc(C(=O)O)cc3)=NC2=O)c2cc([N+](=O)[O-])ccc21 [Compound 46]
inhibition of METTL16–GGACU RNA binding in EMSA, in words [2]: dose-dependently inhibited | inhibition of the methyltransferase activity of METTL16 MTD, in words [3]: dose-dependently inhibited; also recorded: potent inhibitory activity | IC50 under different SAM concentrations (FP assay), in words [4]: remained | IC50 [5]: 2.8 µM | inhibition on colony formation, in words [6]: did not show obvious inhibition on colony formation | IC50 [1]: 2 µM | covalent adduct formation with METTL16 (LC–MS) [7]: no such covalent adduct with a mass shift was observed

COC(=O)c1ccc(S(=O)(=O)NC2=NC(=O)C(=C3C(=O)N(C)c4ccc(Br)cc43)S2)cc1 [Compound 48]
IC50 [1]: 29.4 ± 7.5 µM | fold decrease in inhibitory activity (FP assay) ([1]; 42 compared to compound 4, methyl ester 48 compared to the carboxylic acid analogue): 20 fold

CN1C(=O)C(=C2SC(NS(=O)(=O)c3cccc(C(=O)O)c3)=NC2=O)c2cc(Br)ccc21 [Compound 49]
IC50 [5]: 5.3 µM | IC50 [1]: 3 µM

O=C1CSC(NS(=O)(=O)c2ccccc2)=N1 [Compound Ia]
IC50 [1]: > 100 µM | IC50 class in the FP assay (MAT2A-hp1) [1]: inactive
